Values of other authors, collected in patent publication US20050070524A1, “Compositions of a cyclooxygenase-2 selective inhibitor and an anticonvulsant agent for the treatment of central nervous system disorders” (Pharmacia Corporation, priority 2003, published 2005).

Tests used:
[1] = tested on: high-voltage-activated Ca^2+ currents; settings: rat cortical neurons
[2] = tested on: high-voltage-activated Ca^2+ channels; settings: isolated CA1 hippocampal neurons of rats

SMILES	inhibition of high-voltage-activated Ca^2+ currents [1]	inhibition of high-voltage-activated Ca^2+ channels [2]
Nc1nnc(-c2cccc(Cl)c2Cl)c(N)n1 [lamotrigine]	large dose-dependent inhibition	
CC[C@@H](C(N)=O)N1CCCC1=O [levetiracetam]		directly and irreversibly inhibited
